Source: patent publication US20250154172A1, “PRMT5 INHIBITORS AND USES THEREOF” (Gilead Sciences, Inc., priority 2023, published 2025)

test system: HCT116 MTAP-deleted cell lines; experiment: Cell viability assay for HCT116 isogenic pair (CellTitre-Glo, 7 days); type: cell-based; conditions: Homo sapiens, HCT-116, 168 h, 7 days of treatment, cell line not given
Protocol: Control compounds were analyzed in parallel each time for quality control.
In Brief, on Day −1, a serial dilution of stock compounds in DMSO was performed using BioMek liquid handlers and dispensed using Echo acoustic dispenser into 384 well plates. Both tool compounds and sample compounds were spotted in the same plate for a dose response of PRMT5 inhibitors. Compound plates were stored as frozen until the cells were ready for seeding.
On Day 0, 100 HCT WT or HCT116 MTAP-deleted cells were seeded in compound-containing 384 well plates (50 μl per well) in RPMI 1640 media supplemented with 10% heat inactivated fetal bovine serum, Glutamax and penicillin streptomycin using EL460 liquid dispenser 5 μl cassette (BioTek, part no. 7170011). After equilibrating the plate in room temperature, the cells were incubated for 7 days inside the sealed incubator set at 37° C. with 90% humidity and 5% CO2.
On Day 7, the viability of cells was measured using a CTG assay kit (CellTitre-Glo; Promega cat no. G7573). Shortly, 40 μl per well of luminescent cell viability assay reagent were dispensed using EL460 liquid dispenser 5 μl cassette. CTG luminescence signal was measured using an EnVision plate reader (PerkinElmer) in accordance with manufacturer's instruction. The CCso values for each compound after 7 days of treatment were calculated using 4 parameter non-linear logistical curve fit.
For the cell viability assay ie CC50 shown in nM in Table 3.

Structure (SMILES) | CC50
CN(C(=O)c1cc2c(cn1)nc(N)c1cnn(C)c12)[C@@H]1c2ccc(C(F)(F)F)cc2[C@H]2C[C@H]21 (single isomer, unassigned) [Example Ca-27] | 88 nM
Nc1nc2cnc(C(=O)N3CC[C@H]4C[C@@H]3c3c(F)cc(C(F)(F)F)cc3O4)cc2c2c1COC2 [Example Ca-59, (4-amino-1,3-dihydrofuro[3,4-c][1,7]naphthyridin-8-yl)((2S,6R)-7-fluoro-9-(trifluoromethyl)-3,4-dihydro-2H-2,6-methanobenzo[b][1,5]oxazocin-5(6H)-yl)methanone] | 17 nM
Cn1ncc2c(N)nc3cnc(C(=O)N4CCO[C@@H]5Cc6cc(C(F)(F)F)ccc6[C@@H]54)cc3c21 [Example Ca-54, (4-amino-1-methyl-1H-pyrazolo[4,3-c][1,7]naphthyridin-8-yl)((4aS,9aR)-7-(trifluoromethyl)-2,3,9,9a-tetrahydroindeno[2,1-b][1,4]oxazin-4(4aH)-yl)methanone] | 16 nM
Cn1ncc2c(N)nc3cnc(C(=O)N4CC[C@H]5C[C@@H]4c4ccc(Cl)c(F)c45)cc3c21 [Example Ca-42, (4-amino-1-methyl-1H-pyrazolo[4,3-c][1,7]naphthyridin-8-yl)((1R,5S)-7-chloro-6-fluoro-1,3,4,5-tetrahydro-2H-1,5-methanobenzo[c]azepin-2-yl)methanone] | 25 nM
C[C@H]1CN(C(=O)c2cc3c(cn2)nc(N)c2cnn(C)c23)[C@H]2c3ccc(Br)c(F)c3C[C@H]2O1 (single isomer, unassigned) [Example Ca-31] | 32 nM
Nc1nc2cnc(C(=O)N3CCC[C@@H]4Cc5cc(C(F)(F)F)ccc5[C@@H]43)cc2c2c1COC2 (racemic) [Example Ca-23, (Rac)-(4-amino-1,3-dihydrofuro[3,4-c][1,7]naphthyridin-8-yl)((4aR,9bR)-7-(trifluoromethyl)-2,3,4,4a,5,9b-hexahydro-1H-indeno[1,2-b]pyridin-1-yl)methanone] | 134 nM
Nc1nc2cnc(C(=O)N3C[C@@H](F)C[C@@H]4Oc5cc(C(F)(F)F)cc(F)c5[C@@H]43)cc2c2c1COC2 [Example Ca-57, (4-amino-1,3-dihydrofuro[3,4-c][1,7]naphthyridin-8-yl)((3S,4aS,9bS)-3,9-difluoro-7-(trifluoromethyl)-3,4,4a,9b-tetrahydrobenzofuro[3,2-b]pyridin-1(2H)-yl)methanone] | 20 nM
Cn1ncc2c(N)nc3cnc(C(=O)N4CCO[C@@H]5Cc6cc(Br)c(F)cc6[C@@H]54)cc3c21 [Example Ca-29, (4-amino-1-methyl-1H-pyrazolo[4,3-c][1,7]naphthyridin-8-yl)((4aS,9aR)-7-bromo-6-fluoro-2,3,9,9a-tetrahydroindeno[2,1-b][1,4]oxazin-4(4aH)-yl)methanone] | 5 nM
Cn1ncc2c3cc(C(=O)N4CCC[C@@H]5Oc6cc(C(F)(F)F)cc(F)c6[C@@H]54)ncc3nc(N)c21 [Example Ca-52, (4-amino-3-methyl-3H-pyrazolo[3,4-c][1,7]naphthyridin-8-yl)((4aS,9bS)-9-fluoro-7-(trifluoromethyl)-3,4,4a,9b-tetrahydrobenzofuro[3,2-b]pyridin-1(2H)-yl)methanone] | 48 nM
Cn1ncc2c(N)nc3cnc(C(=O)N4CCO[C@@H]5Cc6cc(Cl)ccc6[C@@H]54)cc3c21 [Example Ca-35, (4-amino-1-methyl-1H-pyrazolo[4,3-c][1,7]naphthyridin-8-yl)((4aS,9aR)-7-chloro-2,3,9,9a-tetrahydroindeno[2,1-b][1,4]oxazin-4(4aH)-yl)methanone] | 36 nM
Cn1ncc2c(N)nc3cnc(C(=O)N4CCC5CC4c4ccc(C(F)(F)F)cc45)cc3c21 (racemic) [Example Ca-14, (Rac)-(4-amino-1-methyl-1H-pyrazolo[4,3-c][1,7]naphthyridin-8-yl)((1R,5S)-7-(trifluoromethyl)-1,3,4,5-tetrahydro-2H-1,5-methanobenzo[c]azepin-2-yl)methanone] | 16 nM
C[C@@H]1CN(C(=O)c2cc3c(cn2)nc(N)c2cnn(C)c23)[C@H]2c3ccc(Br)cc3C[C@H]2O1 [Example Ca-50, (4-amino-1-methyl-1H-pyrazolo[4,3-c][1,7]naphthyridin-8-yl)((2R,4aS,9aR)-7-bromo-2-methyl-2,3,9,9a-tetrahydroindeno[2,1-b][1,4]oxazin-4(4aH)-yl)methanone] | 20 nM
Cn1ncc2c(N)nc3cnc(C(=O)N4CCO[C@@H]5Cc6cc(OC(F)(F)F)ccc6[C@@H]54)cc3c21 [Example Ca-53, (4-amino-1-methyl-1H-pyrazolo[4,3-c][1,7]naphthyridin-8-yl)((4aS,9aR)-7-(trifluoromethoxy)-2,3,9,9a-tetrahydroindeno[2,1-b][1,4]oxazin-4(4aH)-yl)methanone] | 33 nM
Cn1ncc2c(N)nc3cc(F)c(C(=O)N4CCC[C@@H]5Oc6cc(-c7cnn(C(F)(F)F)c7)ccc6[C@@H]54)cc3c21 [Example Ca-56, (4-amino-7-fluoro-1-methyl-1H-pyrazolo[4,3-c]quinolin-8-yl)((4aS,9bS)-7-(1-(trifluoromethyl)-1H-pyrazol-4-yl)-3,4,4a,9b-tetrahydrobenzofuro[3,2-b]pyridin-1(2H)-yl)methanone] | 4 nM
C[C@H]1CN(C(=O)c2cc3c(cc2F)nc(N)c2cnn(C)c23)[C@H]2c3ccc(C(F)(F)F)cc3C[C@H]2O1 [Example Ca-22, (4-amino-7-fluoro-1-methyl-1H-pyrazolo[4,3-c]quinolin-8-yl)((2S,4aS,9aR)-2-methyl-7-(trifluoromethyl)-2,3,9,9a-tetrahydroindeno[2,1-b][1,4]oxazin-4(4aH)-yl)methanone] | 11 nM
C[C@@H]1C[C@@H]2CCc3cc(C(F)(F)F)ccc3[C@@H]2N(C(=O)c2cc3c4c(c(N)nc3cn2)COC4)C1 (racemic) [Example Ca-40, (Rac)-(4-amino-1,3-dihydrofuro[3,4-c][1,7]naphthyridin-8-yl)((3R,4aS,10bR)-3-methyl-8-(trifluoromethyl)-3,4,4a,5,6,10b-hexahydrobenzo[h]quinolin-1(2H)-yl)methanone] | 179 nM
C[C@H]1CN(C(=O)c2cc3c4c(c(N)nc3cn2)COC4)[C@H]2c3ccc(C(F)(F)F)cc3C[C@H]2O1 [Example Cb-1, (4-amino-1,3-dihydrofuro[3,4-c][1,7]naphthyridin-8-yl)((2S,4aS,9aR)-2-methyl-7-(trifluoromethyl)-2,3,9,9a-tetrahydroindeno[2,1-b][1,4]oxazin-4(4aH)-yl)methanone] | 71 nM
C[C@@H]1CN(C(=O)c2cc3c(cn2)nc(N)c2cnn(C)c23)[C@H]2c3ccc(C(F)(F)F)cc3C[C@H]2O1 [Example Ca-49, (4-amino-1-methyl-1H-pyrazolo[4,3-c][1,7]naphthyridin-8-yl)((2R,4aS,9aR)-2-methyl-7-(trifluoromethyl)-2,3,9,9a-tetrahydroindeno[2,1-b][1,4]oxazin-4(4aH)-yl)methanone] | 26 nM
Cn1ncc2c(N)nc3cnc(C(=O)N4CCC[C@@H]5Oc6c(ccc(OC(F)(F)F)c6F)[C@@H]54)cc3c21 [Example Ca-7, (4-amino-1-methyl-1H-pyrazolo[4,3-c][1,7]naphthyridin-8-yl)((4aS,9bS)-6-fluoro-7-(trifluoromethoxy)-3,4,4a,9b-tetrahydrobenzofuro[3,2-b]pyridin-1(2H)-yl)methanone] | 13 nM
